Assay results from US11807835B2, “Detergent compositions containing a stabilized enzyme by phosphonates” (ECOLAB USA INC., priority 2016, dated 2023).

Assays:
Format in all cases: biochemical
protease = experiment: Protease activity retention in detergent use solution (4000 ppm, 5 GPG water; peptidyl substrate, glycine buffer pH 9.0); settings: base formula, use solution at 120° F.
Experimental: (§1) The enzyme activities in the detergents with different phosphonate levels were tested at 4000 ppm in 5 grains per gallon (GPG) water at 120° F. with various time points collected up to 4 hours, after a use solution was generated from the detergent composition. During the tests, the samples at different time points were collected and immediately frozen in an acetone/dry ice bath and stored in −80° C. before the activity of the enzyme was evaluated. For the use of such an assay, t=0 min was the reference point for 100% enzyme activity.
(§2) Assays of enzyme activity in formulations (% retention) were conducted to simulate a presoak condition in a beaker using the chemistry, temperature, and pH conditions relevant to manual warewash or presoak applications. Enzyme activity is an indicator of the stability of the enzyme in the detergent, specifically in an aqueous use solution within a sump (which is under conditions of high pH, temperature and dilution).
The analysis by protease assay was conducted as follows. For the assays, a detergent composition was used to generate an aqueous use solution evaluated herein.
(§3) Enzyme activity under presoak or manual warewash conditions was traced quantitatively using a standard protease assay. Samples were prepared under bench top conditions, whereby the use solution from a detergent composition or detergent was obtained and maintained at a presoak or manual warewash temperature in a stirring water bath. After the time course for assessing enzyme stability is initiated, aliquots were taken at various time points and flash-frozen. A time=0 sample was prepared for each series by dissolving the detergent formulation at room temperature, mixing thoroughly, and flash freezing. Samples were thawed and diluted as necessary in an assay buffer usually for use in the protease assay. A glycine buffer at pH 9.0 is used here. The assay monitored the direct reaction of the protease on a small, commercially available peptidyl substrate, with liberation of the product providing correlation to the active enzyme content. The product was detected using a plate reader with an appreciable dynamic range (upper absorbance limit of the instrument >3.5). Enzyme activity levels were assessed relative to a calibration curve with average values for replicate tests used to map protease stability under presoak or manual warewash use conditions. Enzyme retention at each time point was calculated as the % enzyme activity relative to the time=0 sample.

lipase = experiment: Lipase activity retention in detergent use solution (4000 ppm, 5 GPG water; p-nitrophenyl valerate, TRIS buffer pH 8.0); settings: base formula
Experimental: as §1, with “activities in the detergents with different phosphonate levels were tested at 4000 ppm in 5 grains per gallon (GPG) water at 120° F. with various time points” left out
as §2, §3
The analysis by lipase and amylase assay was conducted similarly, except with a different substrate and buffers. For lipase activity, the substrate is p-nitrophenyl valerate, and for amylase, the substrate is an ethylidene substrate (EPS). The buffer used in lipase assay is TRIS (Tris(hydroxymethyl)aminomethane) buffer at pH 8.0, and in amylase assay HEPES (4-(2-hydroxyethyl)-1-piperazineethanesulfonic acid) buffer at pH 8.0.

[1] = tested on: enzyme (protease, amylase, lipase); experiment: Overall effects of phosphonates on enzyme activity (Table 3)
Experimental: as §1, §2
The relative enzyme activities in a use solution of the tested detergent compositions containing a different phosphonate at different concentrations over a period time are listed in Table 4A-Table 4E, Table 5A-Table 5E, and Table 6A-Table 6F.

Substance: Monoethanolamine phosphonate [MEAP]
- Relative Protease Enzyme Activity (protease; phosphonate 0.3 wt-%, lower half of Table 4A, time 5): 98.29%
- Relative Protease Enzyme Activity (protease; phosphonate 0.3 wt-%, lower half of Table 4A, time 20): 90.19%
- Relative Protease Enzyme Activity (protease; phosphonate 0.3 wt-%, lower half of Table 4A, time 90): 72.58%
- Relative Protease Enzyme Activity (protease; phosphonate 0.3 wt-%, lower half of Table 4A, time 120): 68.59%
- Relative Protease Enzyme Activity (protease; phosphonate 0.3 wt-%, lower half of Table 4A, time 150, unit not given): 63.56%
- Relative Protease Enzyme Activity (protease; phosphonate 0.3 wt-%, lower half of Table 4A, time 210): 60.60%
- Relative Protease Enzyme Activity (protease; phosphonate 0.3 wt-%, lower half of Table 4A, time '0'): 103.02%
- Relative Protease Enzyme Activity (protease; phosphonate 0.3 wt-%, lower half of Table 4A, time '40'): 82.48%
- Relative Protease Enzyme Activity (protease; phosphonate 0.3 wt-%, lower half of Table 4A, time 'Blank'): 100.00%
- Relative Protease Enzyme Activity (protease; phosphonate 0.3 wt-%, lower half of Table 4A, time row printed '10'): 96.59%
- Relative Protease Enzyme Activity (protease; phosphonate 0.3 wt-%, lower half of Table 4A, time row printed '60'): 79.14%
- Relative Protease Enzyme Activity (protease; phosphonate 0.3 wt-%, lower half of Table 4A, time row printed '180'): 58.70%
- Relative Protease Enzyme Activity (protease; phosphonate 0.6 wt-%, time 0 min): 100.00%
- Relative Protease Enzyme Activity (protease; phosphonate 0.6 wt-%, time 5 min): 106.85%
- Relative Protease Enzyme Activity (protease; phosphonate 0.6 wt-%, time 10 min): 101.06%
- Relative Protease Enzyme Activity (protease; phosphonate 0.6 wt-%, time 20 min): 104.08%
- Relative Protease Enzyme Activity (protease; phosphonate 0.6 wt-%, time 40 min): 95.75%
- Relative Protease Enzyme Activity (protease; phosphonate 0.6 wt-%, time 60 min): 95.13%
- Relative Protease Enzyme Activity (protease; phosphonate 0.6 wt-%, time 90 min): 86.12%
- Relative Protease Enzyme Activity (protease; phosphonate 0.6 wt-%, time 120 min): 85.48%
- Relative Protease Enzyme Activity (protease; phosphonate 0.6 wt-%, time 150 min): 80.22%
- Relative Protease Enzyme Activity (protease; phosphonate 0.6 wt-%, time 180 min): 82.71%
- Relative Protease Enzyme Activity (protease; phosphonate 0.6 wt-%, time 210 min): 70.64%
- Relative Protease Enzyme Activity (protease; phosphonate 0.6 wt-%, time 240 min): 72.77%
- Relative Protease Enzyme Activity (protease; phosphonate at 0.1% elemental phosphorus, time 0 min): 100.00%
- Relative Protease Enzyme Activity (protease; phosphonate at 0.1% elemental phosphorus, time 5 min): 119.22%
- Relative Protease Enzyme Activity (protease; phosphonate at 0.1% elemental phosphorus, time 10 min): 118.42%
- Relative Protease Enzyme Activity (protease; phosphonate at 0.1% elemental phosphorus, time 20 min): 113.68%
- Relative Protease Enzyme Activity (protease; phosphonate at 0.1% elemental phosphorus, time 40 min): 108.32%
- Relative Protease Enzyme Activity (protease; phosphonate at 0.1% elemental phosphorus, time 60 min): 105.97%
- Relative Protease Enzyme Activity (protease; phosphonate at 0.1% elemental phosphorus, time 90 min): 95.99%
- Relative Protease Enzyme Activity (protease; phosphonate at 0.1% elemental phosphorus, time 120 min): 91.30%
- Relative Protease Enzyme Activity (protease; phosphonate at 0.1% elemental phosphorus, time 150 min): 82.74%
- Relative Protease Enzyme Activity (protease; phosphonate at 0.1% elemental phosphorus, time 180 min): 81.94%
- Relative Protease Enzyme Activity (protease; phosphonate at 0.1% elemental phosphorus, time 210 min): 79.85%
- Relative Protease Enzyme Activity (protease; phosphonate at 0.1% elemental phosphorus, time 240 min): 75.73%
- Relative Lipase Enzyme Activity (lipase; phosphonate 0.3 wt-%, use solution at 120° F., time 0 min): 100.00%
- Relative Lipase Enzyme Activity (lipase; phosphonate 0.3 wt-%, use solution at 120° F., time 5 min): 84.99%
- Relative Lipase Enzyme Activity (lipase; phosphonate 0.3 wt-%, use solution at 120° F., time 10 min): 78.55%
- Relative Lipase Enzyme Activity (lipase; phosphonate 0.3 wt-%, use solution at 120° F., time 20 min): 58.36%
- Relative Lipase Enzyme Activity (lipase; phosphonate 0.3 wt-%, use solution at 120° F., time 40 min): 39.07%
- Relative Lipase Enzyme Activity (lipase; phosphonate 0.3 wt-%, use solution at 120° F., time 60 min): 31.84%
- Relative Lipase Enzyme Activity (lipase; phosphonate 0.3 wt-%, use solution at 120° F., time 90 min): 26.97%
- Relative Lipase Enzyme Activity (lipase; phosphonate 0.3 wt-%, use solution at 120° F., time 120 min): 22.23%
- Relative Lipase Enzyme Activity (lipase; phosphonate 0.3 wt-%, use solution at 120° F., time 150 min): 20.19%
- Relative Lipase Enzyme Activity (lipase; phosphonate 0.3 wt-%, use solution at 120° F., time 180 min): 19.50%
- Relative Lipase Enzyme Activity (lipase; phosphonate 0.3 wt-%, use solution at 120° F., time 210 min): 16.46%
- Relative Lipase Enzyme Activity (lipase; phosphonate 0.3 wt-%, use solution at 120° F., time 240 min): 15.76%
- Relative Lipase Enzyme Activity (lipase; phosphonate 0.6 wt-%, use solution at 120º F., time 0 min): 100.00%
- Relative Lipase Enzyme Activity (lipase; phosphonate 0.6 wt-%, use solution at 120º F., time 5 min): 95.37%
- Relative Lipase Enzyme Activity (lipase; phosphonate 0.6 wt-%, use solution at 120º F., time 10 min): 90.69%
- Relative Lipase Enzyme Activity (lipase; phosphonate 0.6 wt-%, use solution at 120º F., time 20 min): 83.63%
- Relative Lipase Enzyme Activity (lipase; phosphonate 0.6 wt-%, use solution at 120º F., time 40 min): 72.89%
- Relative Lipase Enzyme Activity (lipase; phosphonate 0.6 wt-%, use solution at 120º F., time 60 min): 69.90%
- Relative Lipase Enzyme Activity (lipase; phosphonate 0.6 wt-%, use solution at 120º F., time 90 min): 65.92%
- Relative Lipase Enzyme Activity (lipase; phosphonate 0.6 wt-%, use solution at 120º F., time 120 min): 59.18%
- Relative Lipase Enzyme Activity (lipase; phosphonate 0.6 wt-%, use solution at 120º F., time 150 min): 53.85%
- Relative Lipase Enzyme Activity (lipase; phosphonate 0.6 wt-%, use solution at 120º F., time 180 min): 51.72%
- Relative Lipase Enzyme Activity (lipase; phosphonate 0.6 wt-%, use solution at 120º F., time 210 min): 47.03%
- Relative Lipase Enzyme Activity (lipase; phosphonate 0.6 wt-%, use solution at 120º F., time 240 min): 42.96%
- Relative Lipase Enzyme Activity (lipase; phosphonate at 0.1% elemental phosphorus, at 120º F. or at room temperature (as titled), time 0 min): 100.00%
- Relative Lipase Enzyme Activity (lipase; phosphonate at 0.1% elemental phosphorus, at 120º F. or at room temperature (as titled), time 5 min): 81.36%
- Relative Lipase Enzyme Activity (lipase; phosphonate at 0.1% elemental phosphorus, at 120º F. or at room temperature (as titled), time 10 min): 84.98%
- Relative Lipase Enzyme Activity (lipase; phosphonate at 0.1% elemental phosphorus, at 120º F. or at room temperature (as titled), time 20 min): 71.62%
- Relative Lipase Enzyme Activity (lipase; phosphonate at 0.1% elemental phosphorus, at 120º F. or at room temperature (as titled), time 40 min): 57.03%
- Relative Lipase Enzyme Activity (lipase; phosphonate at 0.1% elemental phosphorus, at 120º F. or at room temperature (as titled), time 60 min): 47.80%
- Relative Lipase Enzyme Activity (lipase; phosphonate at 0.1% elemental phosphorus, at 120º F. or at room temperature (as titled), time 90 min): 41.02%
- Relative Lipase Enzyme Activity (lipase; phosphonate at 0.1% elemental phosphorus, at 120º F. or at room temperature (as titled), time 120 min): 31.46%
- Relative Lipase Enzyme Activity (lipase; phosphonate at 0.1% elemental phosphorus, at 120º F. or at room temperature (as titled), time 150 min): 28.32%
- Relative Lipase Enzyme Activity (lipase; phosphonate at 0.1% elemental phosphorus, at 120º F. or at room temperature (as titled), time 180 min): 20.93%
- Relative Lipase Enzyme Activity (lipase; phosphonate at 0.1% elemental phosphorus, at 120º F. or at room temperature (as titled), time 210 min): 23.04%
- Relative Lipase Enzyme Activity (lipase; phosphonate at 0.1% elemental phosphorus, at 120º F. or at room temperature (as titled), time 240 min): 20.87%
- Stability (effects on enzyme activity) [1]: Yes
